Patent publication US11414449B2, “Hydrated and anhydrous polymorphs of 2′-O- fucosyllactose and their production methods” (BASF SE, priority 2012, dated 2022)
Each block holds one compound with its values, some of them ahead of it.

Key:
Format in all cases: physicochemical
[1] = re-analysis of example batches after storage (KF, LOD)
Experimental: (§1) Determination of water content in the product based on a specific oxidation-reduction reaction between the water present in the sample and the Karl Fischer reagent.
(§2) About 200 mg of the 2′-FL were weighed into the appropriate container, the balance was set to zero and the substance transferred into the previously dehydrated cell. The empty container was placed on the pan of the balance to determine the exact value of the substance transferred into the cell. Set the measured weight into the formula: % H2O=V×T×F/PC
(§3) Gravimetric method with heating of the sample using a halogen lamp

[2] = accelerated stability of Polymorph A, water content by Karl-Fischer over time; settings: accelerated stability (75 ± 5% RH)
Experimental: as §1, §2

[3] = stability studies of Polymorph A (accelerated and 25°C/60% RH): KF, loss on drying, XRPD after storage; settings: 40°±2° C., 75±5% RH and 25°±2° C., 60±5% RH
Experimental: In particular Polymorph A, was subjected to studies of stability both accelerated at 40°±2° C.; 75±5% RH and at 25°±2° C., 60±5% RH.
In particular, the percentage of water takes values between 5% and 7%, preferably between 5.5% and 6.5%, still more preferably between 5.7% and 6.2% (See Table 1).
as §1, §3

- KF after 6 months ([1]; after 6 months): 6.00%
- LOD after 6 months (Method 2) ([1]; after 6 months, LOD Method 2): 2.17%
Compound: C[C@@H]1OC(O[C@H]2[C@H](O[C@H]3[C@H](O)[C@@H](O)C(O)O[C@@H]3CO)O[C@H](CO)[C@H](O)[C@@H]2O)[C@@H](O)[C@H](O)[C@@H]1O (mixture of isomers) [Example 4, 2′-O-fucosyllactose]

- KF after 2 months ([1]; after 2 months): 0.34%
Compound: C[C@@H]1OC(O[C@H]2[C@H](O[C@H]3[C@H](O)[C@@H](O)C(O)O[C@@H]3CO)O[C@H](CO)[C@H](O)[C@@H]2O)[C@@H](O)[C@H](O)[C@@H]1O (mixture of isomers) [Example 19, 2′-O-fucosyllactose]

- KF after 10 days in a petri dish ([1]; after 10 days in a petri dish): 0.67%
Compound: C[C@@H]1OC(O[C@H]2[C@H](O[C@H]3[C@H](O)[C@@H](O)C(O)O[C@@H]3CO)O[C@H](CO)[C@H](O)[C@@H]2O)[C@@H](O)[C@H](O)[C@@H]1O (mixture of isomers) [Example 21, 2′-O-fucosyllactose]

- KF % ([2]; time 0 months): 4.2%
- KF % ([2]; time 1 month): 6.0%
- KF % ([2]; time 2 months): 6.0%
- KF % ([2]; time 3 months): 5.7%
- KF % ([2]; time 4 months): 5.9%
- KF % ([2]; time 5 months): 6.0%
- KF % ([2]; time 6 months): 6.0%
- humidity uptake in stability studies (KF trend) ([3]; 1-3 months): tends to adsorb humidity immediately
Compound: C[C@@H]1OC(O[C@H]2[C@H](O[C@H]3[C@H](O)[C@@H](O)C(O)O[C@@H]3CO)O[C@H](CO)[C@H](O)[C@@H]2O)[C@@H](O)[C@H](O)[C@@H]1O (mixture of isomers) [Polymorph A, 2′-O-fucosyllactose]
- XRPD spectrum of stored samples (crystal form retention) [3]: continues to show the characteristic peaks of Polymorph A
